Test results from article PMC12645469 (Nature structural & molecular biology, 2024).
Each block holds one molecule with its values, some of them ahead of it.

Key:
[1] = target: T1, NaDC3 (Homo sapiens, UniProt Q8WWT9); experiment: intrinsic tryptophan fluorescence quenching; format: binding
T1 sequence (Q8WWT9 1-602): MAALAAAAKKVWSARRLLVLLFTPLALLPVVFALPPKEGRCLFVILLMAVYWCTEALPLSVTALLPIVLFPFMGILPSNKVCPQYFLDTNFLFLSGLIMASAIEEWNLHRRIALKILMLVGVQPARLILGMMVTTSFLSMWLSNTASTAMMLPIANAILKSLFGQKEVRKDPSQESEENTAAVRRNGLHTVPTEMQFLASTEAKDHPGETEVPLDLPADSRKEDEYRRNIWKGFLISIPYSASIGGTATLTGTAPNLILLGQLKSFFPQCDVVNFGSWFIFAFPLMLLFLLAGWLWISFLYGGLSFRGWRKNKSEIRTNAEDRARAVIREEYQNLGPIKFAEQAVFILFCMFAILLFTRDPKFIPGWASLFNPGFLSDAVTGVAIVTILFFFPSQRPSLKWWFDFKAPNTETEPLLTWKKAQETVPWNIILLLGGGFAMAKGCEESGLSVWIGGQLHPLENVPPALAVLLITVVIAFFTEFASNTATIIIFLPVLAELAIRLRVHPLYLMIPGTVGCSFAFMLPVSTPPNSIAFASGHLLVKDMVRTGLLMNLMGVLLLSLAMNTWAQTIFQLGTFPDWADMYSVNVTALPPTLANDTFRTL

[2] = target: T1, NaDC3; experiment: cryo-EM structure; format: cell-based
[3] = target: T1, NaDC3; experiment: biochemical
[4] = target: NaDC3 (Homo sapiens, UniProt Q8WWT9, F93Y)
NaDC3 (Homo sapiens, UniProt Q8WWT9, F93Y), sequence (Q8WWT9 whole entry F93Y): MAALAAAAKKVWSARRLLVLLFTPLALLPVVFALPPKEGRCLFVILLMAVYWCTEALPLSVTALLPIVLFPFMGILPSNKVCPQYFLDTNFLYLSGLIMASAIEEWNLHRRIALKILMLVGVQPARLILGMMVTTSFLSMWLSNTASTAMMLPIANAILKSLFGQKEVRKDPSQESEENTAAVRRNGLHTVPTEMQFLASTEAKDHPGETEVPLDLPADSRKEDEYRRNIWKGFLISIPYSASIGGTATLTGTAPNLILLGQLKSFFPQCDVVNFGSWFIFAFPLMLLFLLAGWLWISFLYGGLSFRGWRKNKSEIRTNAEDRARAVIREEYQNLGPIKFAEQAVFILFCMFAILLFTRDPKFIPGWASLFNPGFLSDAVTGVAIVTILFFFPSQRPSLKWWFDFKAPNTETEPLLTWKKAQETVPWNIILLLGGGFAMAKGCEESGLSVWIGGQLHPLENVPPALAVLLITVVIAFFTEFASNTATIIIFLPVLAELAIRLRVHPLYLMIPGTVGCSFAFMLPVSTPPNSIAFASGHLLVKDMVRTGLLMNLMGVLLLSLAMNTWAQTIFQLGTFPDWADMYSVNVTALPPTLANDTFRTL

[5] = target: the molecule itself; experiment: cryo-EM structure

Kd [1]: 10.2 ± 5.6 µM
Molecule: CC(C(=O)O)C(C)C(=O)O (centres unmarked) [DMS, 2,3-dimethylsuccinate]

IC50 [2]: 39.2 µM
Molecule: COc1ncc(C)cc1CC[C@@](O)(CC(=O)O)C(=O)O [PF4a, PF-06761281]

Kd [3]: 17.6 ± 9.8 µM
Km [4]: 10.5 ± 5.9 µM
Molecule: O=C(O)CCC(=O)O [Succ, succinate]

B1: human high affinity sodium-dicarboxylate cotransporter NaDC3 (natural protein)
chain: T1 sequence (Q8WWT9 1-602)
stoichiometry N [5]: 2
